What was measured:
EV-A71 AH08/06 = experiment: CPE protection, EV-A71 AH08/06 strain; assay type: cell-based; conditions: EV-A71 AH08/06, RD cells
CV-B3 Nancy = experiment: CPE protection, CV-B3 Nancy strain; assay type: cell-based; conditions: for EC50: CV-B3 Nancy, Vero cells
Huh7 cells = experiment: cytotoxicity test on Huh7 cells; assay type: cell-based, Human; conditions: 3 days
Description: Human liver tumor cells (Huh7 cells) used in the experiment were purchased from Chinese National Infrastructure of Cell Line Resource. Human […] cells (RD cells) and African green monkey kidney cells (Vero cells) were purchased from ATCC (Cat. No.: CCL-136 and CCL-81, respectively). The above cells were cultured in a cell culture incubator at 37° C. and 5% CO2. The complete culture medium used for cell growth was DMEM high-glucose culture medium (purchased from Gibco, Cat. […] No.: 16000044) and penicillin-streptomycin (purchased from Gibco, Cat. No.: 2321152). The maintenance culture medium used for cell culture was DMEM high-glucose culture medium supplemented with 2% FBS and penicillin-streptomycin. H strain of EV-A71 was purchased from ATCC (Cat. No.: VR-1432). […] The microplate reader, model Spectra Max M5, was purchased from Molecular Devices. […] Finally, the luminescence value of each well was measured using the microplate reader. The inhibition rate of the test compounds at each dilution was calculated as follows: [formula] […] The half-cytotoxic concentrations (CC50) of the test compounds were calculated using the same method, and the select index (SI) was calculated based on EC50 and CC50: SI=CC50/EC50.

EV-A71 [1] = experiment: EV-A71 viral load in ICR suckling mice tissues (qRT-PCR); assay type: in vivo; conditions: 200 mg/kg intraperitoneally once per day, 4th day (FIG. 7)
EV-A71 H strain = experiment: protection against cytopathic effect (CPE) caused by EV-A71, Cell-Titer Glo; assay type: cell-based; conditions: for EC50: EV-A71 H strain, 3 days; for inhibition of the cytopathic effect caused by the virus: multiple cell lines infected with EV-A71 (FIG. 2)
Description: Human liver tumor cells (Huh7 cells) used in the experiment were purchased from Chinese National Infrastructure of Cell Line Resource. Human […] cells (RD cells) and African green monkey kidney cells (Vero cells) were purchased from ATCC (Cat. No.: CCL-136 and CCL-81, respectively). The above cells were cultured in a cell culture incubator at 37° C. and 5% CO2. The complete culture medium used for cell growth was DMEM high-glucose culture medium (purchased from Gibco, Cat. […] No.: 16000044) and penicillin-streptomycin (purchased from Gibco, Cat. No.: 2321152). The maintenance culture medium used for cell culture was DMEM high-glucose culture medium supplemented with 2% FBS and penicillin-streptomycin. H strain of EV-A71 was purchased from ATCC (Cat. No.: VR-1432). Compounds EIDD-1931 and EIDD-2801 were purchased from Shanghai Topscience Biochemical Technology Co., Ltd. (Cat Nos: […] and […], respectively), and their structures were shown in FIG. 1. Cell-Titer Glo® Luminescent Cell Viability Assay Solution was purchased from Promega (Cat. No.: G7572). The microplate reader, model Spectra Max M5, was purchased from Molecular Devices. Huh7 cells, RD cells, and Vero cells were seeded into a 96-well plate with a white wall and a transparent bottom at a density of about 1.0×10^4 per well and cultured at 37° C. and 5% CO2 for 24 hours. Then, the EV-A71 virus was diluted with cell maintenance solution and added to the 96-well plate to reach a final concentration of 100TCID50. […] After 3 days, the supernatant was discarded, and the diluted Cell-Titer Glo® Luminescent Cell Viability Assay Solution was added. The cells were shaken and lysed for 5 minutes in the dark, and then allowed to stand for 3 minutes. Finally, the luminescence value of each well was measured using the microplate reader. The formula for calculating the inhibition rate of the test compounds against virus was: [formula] Origin9.0 software was used to fit the inhibition rate-concentration S-shaped curve and calculate the half-maximal effective concentrations (EC50) of the test compounds. The half-cytotoxic concentrations (CC50) of the test compounds were calculated using the same method, and the select index (SI) was calculated based on EC50 and CC50: SI=CC50/EC50.

CV-A6 TW-2007-00141 = experiment: CPE protection, CV-A6 TW-2007-00141 strain; assay type: cell-based; conditions: CV-A6 TW-2007-00141, RD cells
CV-A16 190-D1 = experiment: CPE protection, CV-A16 190-D1 strain; assay type: cell-based; conditions: for EC50: CV-A16 190-D1, RD cells
MERS-CoV or SARS-CoV = conditions: mice, cited from earlier work
EV-A71 RNA = experiment: inhibition of EV-A71 viral RNA replication (qRT-PCR) in RD cells; assay type: cell-based; conditions: 0.1 MOI, 30 hours (FIG. 3 B and D)
EV-A71 [2] = experiment: time series experiment, intracellular viral RNA load in RD cells; assay type: cell-based; conditions: 10 μM, 0.01 MOI (FIG. 5)
Description: The specific steps were as follows: RD cells were seeded in a 12-well plate at a density of about 4.0×10^5 per well and cultured at 37° C. and 5% CO2 for 24 hours. Subsequently, the test compound EIDD-1931, the positive compound NITD008 and the EV-A71 virus were diluted to the corresponding concentrations with the cell maintenance medium, and then the pre-diluted compound or virus was added at the time point as shown in A in FIG. 5. After 30 hours of continuous culture, the cell supernatant was discarded, the intracellular RNA was extracted, and the intracellular viral RNA load was detected by qRT-PCR. The intracellular RNA extraction method and qRT-PCR system and reaction conditions were the same as described above.

Row | Structure (SMILES) | EC50 (EV-A71 AH08/06) [µM] | inhibitory activity against CV-B3 (CV-B3 Nancy) | EC50 (CV-B3 Nancy) [µM] | CC50 (Huh7 cells) [µM] | viral loads in tissues or organs (brain, heart, small intestine, liver, hind limb muscle, lung) (EV-A71 [1]) | EC50 (EV-A71 H strain; Huh7 cells) [µM] | EC50 (EV-A71 H strain; RD cells) [µM] | EC50 (EV-A71 H strain; Vero cells) [µM] | SI (CC50/EC50) (EV-A71 H strain; Huh7 cells) | SI (CC50/EC50) (EV-A71 H strain; RD cells) | SI (CC50/EC50) (EV-A71 H strain; Vero cells) | inhibition of the cytopathic effect caused by the virus (EV-A71 H strain) | EC50 (CV-A6 TW-2007-00141) [µM] | inhibitory activity against CV-A16 (CV-A16 190-D1) | EC50 (CV-A16 190-D1) [µM] | lung damage caused by MERS-CoV or SARS-CoV infections (MERS-CoV or SARS-CoV; preventive use) | degree of lung damage and weight loss (MERS-CoV or SARS-CoV; therapeutic use within 12 hours or 24 hours after infection) | inhibition of replication of EV-A71 RNA (EV-A71 RNA) | inhibition on the adsorption and entry of the virus (EV-A71 [2]) | stage of virus infection at which the antiviral effect is exerted (EV-A71 [2])
1 | CC(C)C(=O)OC[C@H]1O[C@@H](n2cc/c(=N\O)[nH]c2=O)[C@H](O)[C@@H]1O [EIDD-2801] | 30.3 ± 0.55 | low inhibitory activity | 87.2 ± 10.8 | > 100 | significantly reduced | 35.6 ± 0.47 | 70.1 ± 4.4 | 88.5 ± 3.18 | > 2.81 | > 1.43 | > 1.13 | dose-dependently inhibit | > 100 | low inhibitory activity | 44.9 ± 4.23 | prevent lung damage | significantly reduce | dose-dependently inhibited | – | –
2 | O=c1nc(NO)ccn1[C@@H]1O[C@H](CO)[C@@H](O)[C@H]1O [EIDD-1931] | 2.79 ± 0.89 | – | 3.65 ± 0.82 | 34.09 ± 0.06 | significantly reduced | 4.43 ± 0.33 | 5.13 ± 0.56 | 7.04 ± 0.38 | 7.69 | 15.69 | 2.0 | dose-dependently inhibit | 17.7 ± 0.38 | – | 4.14 ± 0.27 | – | – | dose-dependently inhibited | no obvious inhibition | viral replication stage
